In US10508120B2, “TYK2 inhibitors and uses thereof” (Nimbus Lakshmi, Inc., priority 2017, dated 2019):

Assays:
[1] = molecular target: JAK2 kinase domain (JH1) (Homo sapiens (Human), UniProt O60674); test: JAK2 Radioactive Kinase Assay; format: biochemical; conditions: 10 μM compound; 10 μM ATP; read-out: JAK2 JH1% Inhibition @ 10 μM
Summary of the method: (§1)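 Compounds were tested at a single concentration of 10 μM in a radiometric kinase format against each isolated kinase domain. Activity is reported as percent inhibition at that concentration.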

[2] = molecular target: human TYK2 (JH2domain-pseudokinase) (Homo sapiens (Human), UniProt P29597); test: TYK2 JH2 Domain Binding Assay (KINOMEscan)
Summary of the method: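 Pseudokinase domain binding was measured by qPCR of tagged, bead-retained kinase after 1 h room-temperature competition, with 0.9% DMSO and compound up to 30,000 nM in 3-fold steps. Hill-equation Kd, duplicate.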

[3] = molecular target: Tyk2 kinase domain (DH1) (Homo sapiens (Human), UniProt P29597); test: Tyk2 Radioactive Kinase Assay; format: biochemical; conditions: 10 μM compound; 10 μM ATP; read-out: Tyk2 JH1% Inhibition @ 10 μM
Summary of the method: as §1

Tyk2 kinase domain (DH1), sequence (P29597 897-1176): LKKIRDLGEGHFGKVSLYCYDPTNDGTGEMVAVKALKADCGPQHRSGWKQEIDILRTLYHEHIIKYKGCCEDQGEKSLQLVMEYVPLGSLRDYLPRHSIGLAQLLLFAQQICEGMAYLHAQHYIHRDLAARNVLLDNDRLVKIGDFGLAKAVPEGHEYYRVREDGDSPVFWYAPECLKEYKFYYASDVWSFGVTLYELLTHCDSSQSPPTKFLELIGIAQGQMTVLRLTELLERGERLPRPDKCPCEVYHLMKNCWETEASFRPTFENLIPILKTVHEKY
JAK2 kinase domain (JH1), sequence (O60674 849-1124): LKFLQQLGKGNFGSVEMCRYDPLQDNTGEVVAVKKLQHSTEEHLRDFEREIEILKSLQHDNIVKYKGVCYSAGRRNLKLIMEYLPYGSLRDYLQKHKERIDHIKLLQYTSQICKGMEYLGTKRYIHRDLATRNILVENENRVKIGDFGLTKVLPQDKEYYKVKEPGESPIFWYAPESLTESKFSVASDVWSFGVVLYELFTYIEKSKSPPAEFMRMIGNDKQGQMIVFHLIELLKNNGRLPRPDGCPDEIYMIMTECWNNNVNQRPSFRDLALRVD
human TYK2 (JH2domain-pseudokinase), sequence (P29597 556-888): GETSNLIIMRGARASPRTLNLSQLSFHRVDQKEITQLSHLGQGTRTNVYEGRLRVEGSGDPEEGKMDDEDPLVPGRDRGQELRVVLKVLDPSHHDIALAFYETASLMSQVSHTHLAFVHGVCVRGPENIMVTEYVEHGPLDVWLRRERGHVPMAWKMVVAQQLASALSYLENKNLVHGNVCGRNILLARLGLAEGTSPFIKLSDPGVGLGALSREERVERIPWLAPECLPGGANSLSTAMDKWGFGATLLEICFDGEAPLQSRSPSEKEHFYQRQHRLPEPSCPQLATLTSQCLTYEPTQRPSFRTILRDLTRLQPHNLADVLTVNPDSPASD

SMILES	inhibition at 10 µM [1] [%]	Kd [2] [nM]	inhibition at 10 µM [3] [%]
CNc1cc(Nc2cccn([C@H]3C[C@@H]3F)c2=O)nc2c(C(=O)NC3CC3)cnn12 [I-867]	< 50	< 0.2	< 50
CNc1cc(Nc2cccn(-c3ncccc3F)c2=O)nc2c(C(=O)NC[C@H](C)CO)cnn12 [I-868]	< 50	< 0.2	< 50
CNc1cc(Nc2cccn(-c3ncccc3F)c2=O)nc2c(C(=O)NC[C@@H](C)CO)cnn12 [I-869]	< 50	< 0.2	< 50
CNc1cc(Nc2cccn(C3CC4(COC4)C3)c2=O)nc2c(C(=O)N[C@@H]3CC[C@@H]3O)cnn12 [I-871]	< 50	0.2 to 1	< 50
CNc1cc(Nc2cccc(N3CC4(CCO4)C3)n2)nc2c(C(=O)N[C@H]3CC[C@H]3O)cnn12 [I-872]	< 50	< 0.2	< 50
CNc1cc(Nc2cccc(N3CC4(CCO4)C3)n2)nc2c(C(=O)N[C@@H]3CC[C@@H]3O)cnn12 [I-873]	< 50	1 to 10	< 50
CNc1cc(-c2cn(CCN3CCCCC3)c3ncccc23)nc2c(C(=O)N[C@@H]3CC[C@@H]3O)cnn12 [I-874]	< 50	1 to 10	< 50
CNc1cc(-c2cn(CCN3CCCCC3)c3ncccc23)nc2c(C(=O)N[C@H]3CC[C@H]3O)cnn12 [I-875]	< 50	< 0.2	< 50
CNc1cc(Nc2cccn([C@@H]3CCCC[C@@H]3O)c2=O)nc2c(C(=O)NC3CC3)cnn12 [I-879]	< 50	1 to 10	< 50
CNc1cc(Nc2cccn([C@H]3CCCN(CCF)C3)c2=O)nc2c(C(=O)NC3CC3)cnn12 [I-880]	< 50	< 0.2	< 50
CNc1cc(Nc2cccn([C@@H]3CCCN(CCF)C3)c2=O)nc2c(C(=O)NC3CC3)cnn12 [I-881]	< 50	0.2 to 1	< 50
CNc1cc(Nc2cccn([C@H]3CCC[C@H](OC)C3)c2=O)nc2c(C(=O)N[C@@H]3C[C@@H]3F)cnn12 [I-882]	< 50	< 0.2	< 50
CNc1cc(Nc2cccn([C@@H]3CCCC[C@@H]3O)c2=O)nc2c(C(=O)N[C@@H]3C[C@@H]3F)cnn12 [I-889]	< 50	1 to 10	< 50
CNc1cc(Nc2cccn(C(C)C)c2=O)nc2c(C(=O)N[C@H]3CC[C@H]3O)cnn12 [I-894]	< 50	< 0.2	< 50
CNc1cc(Nc2cccn(C3CCN(CCF)CC3)c2=O)nc2c(C(=O)N[C@@H]3CC[C@@H]3O)cnn12 [I-897]	< 50	0.2 to 1	< 50
CNc1cc(Nc2cccn(C3CCN(CCF)CC3)c2=O)nc2c(C(=O)N[C@H]3CC[C@@H]3O)cnn12 [I-899]	< 50	< 0.2	< 50
CNc1cc(Nc2cccn([C@@H]3CCCN(CCF)C3)c2=O)nc2c(C(=O)N[C@@H]3C[C@@H]3F)cnn12 [I-901]	< 50	0.2 to 1	< 50
CNc1cc(-c2cn(CCN3CCN(C)CC3)c3ncccc23)nc2c(C(=O)N[C@@H]3CC[C@@H]3O)cnn12 [I-907, N-((1R,2S)-2-hydroxycyclobutyl)-7-(methylamino)-5-(1-(2-(4-methylpiperazin-1-yl)ethyl)-1H-pyrrolo[2,3-b]pyridin-3-yl)pyrazolo[1,5-a]pyrimidine-3-carboxamide]	< 50	0.2 to 1	< 50

SMILES	inhibition at 10 µM [1] [%]	Kd [2] [nM]	inhibition at 10 µM [3] [%]
CNc1cc(Nc2cccn([C@H]3CC[C@@]4(CCCO4)CC3)c2=O)nc2c(C(=O)NC3CC3)cnn12 [I-910]	< 50	< 0.2	< 50
CNc1cc(Nc2cccn(C3CCCN(CCC#N)C3)c2=O)nc2c(C(=O)N[C@@H]3C[C@@H]3F)cnn12 (stereo partly drawn) [I-912]	< 50	0.2 to 1	< 50
CNC(=O)c1nscc1Nc1cc(NC)n2ncc(C(=O)NC3CC3)c2n1 [I-913]	< 50	0.2 to 1	< 50
CNc1cc(Nc2cccn([C@@H]3CCCC[C@@H]3OC)c2=O)nc2c(C(=O)N[C@@H]3C[C@@H]3F)cnn12 [I-915]	< 50	1 to 10	< 50
CNc1cc(-c2cn(CCN3CCN(C)CC3)c3ncccc23)nc2c(C(=O)N[C@@H]3CC[C@H]3O)cnn12 [I-921, N-((1R,2R)-2-hydroxycyclobutyl)-7-(methylamino)-5-(1-(2-(4-methylpiperazin-1-yl)ethyl)-1H-pyrrolo[2,3-b]pyridin-3-yl)pyrazolo[1,5-a]pyrimidine-3-carboxamide]	< 50	0.2 to 1	< 50
CNc1cc(Nc2cccn([C@H]3CCC[C@@H](OC)C3)c2=O)nc2c(C(=O)NCC3(CO)CC3)cnn12 [I-928]	< 50	0.2 to 1	< 50
CNc1cc(Nc2cccn([C@@H]3CCC[C@H](OC)C3)c2=O)nc2c(C(=O)NCC3(CO)CC3)cnn12 [I-929]	< 50	< 0.2	< 50
CNc1cc(Nc2cc(Cl)cn(C3CCN(C)CC3)c2=O)nc2c(C(=O)N[C@H]3CC[C@@H]3O)cnn12 [I-931]	< 50	< 0.2	< 50
CNc1cc(Nc2cccn([C@H]3CCN(CCF)C3)c2=O)nc2c(C(=O)NC3CC3)cnn12 [I-932]	< 50	0.2 to 1	< 50
CNc1cc(Nc2cccn([C@@H]3CCN(CCF)C3)c2=O)nc2c(C(=O)NC3CC3)cnn12 [I-933]	< 50	< 0.2	< 50
CNc1cc(Nc2cccn([C@H]3CCN(CCF)C3)c2=O)nc2c(C(=O)N[C@@H]3C[C@@H]3F)cnn12 [I-934]	< 50	< 0.2	< 50
CNc1cc(Nc2cccn([C@@H]3CCN(CCF)C3)c2=O)nc2c(C(=O)N[C@@H]3C[C@@H]3F)cnn12 [I-935]	< 50	< 0.2	< 50
CNc1cc(Nc2cccn(-c3oc(C)nc3C)c2=O)nc2c(C(=O)NC3CC3)cnn12 [I-937]	< 50	1 to 10	< 50
CNc1cc(Nc2cccn(-c3oc(C)nc3C)c2=O)nc2c(C(=O)N[C@@H]3C[C@@H]3F)cnn12 [I-938]	< 50	0.2 to 1	< 50
CNc1cc(Nc2cccn(-c3ccccc3F)c2=O)nc2c(C(=O)NCC(C)CO)cnn12 (stereo not drawn) [I-941]	< 50	< 0.2	< 50
CNc1cc(Nc2cccn(C3CCCCC3)c2=O)nc2c(C(=O)N[C@H]3CC[C@H]3O)cnn12 [I-942]	< 50	< 0.2	< 50
CNc1cc(Nc2cccn(C3CCCCC3)c2=O)nc2c(C(=O)NCC(C)CO)cnn12 (stereo not drawn) [I-944]	< 50	< 0.2	< 50
